Measurements reported in US5424395A (priority 1992, dated 1995).
Entries after “also recorded” stand apart in the source; their conditions may differ. Where no end group is shown, it is not given here.

Key:
[1] = extracellular fluid (ECF) from tobacco leaf in 50 mM Tris, pH 7.4; conditions: 37° C., up to one hour
P3 Fusarium [2] = experiment: Antifungal bioassay (spore germination MCIC); type: cell-based, P3 Fusarium (field isolate); conditions: lowest concentration with no spore germination, after 24 hours
Protocol: (§1) Fungi are grown on an appropriate medium, in this case a potato dextrose agar plate, for several weeks. At the end of that period, the plate was flooded with about 5 mL of sterile distilled water to harvest spores. The spore concentration was determined by use of a hemocytometer and the spore suspension was stored in a sterile tube at 4° C. until it was needed. Then 82 microliters of potato dextrose broth and 3 microliters of spore suspension (ranging from 10^5 to 10^7 spores total) was then added to 12 wells in a 96 well microtiter plate for each AMPPP to be tested, with 1-4 replicate sets of 12 wells prepared for each AMPPP within a single experiment. […] The amount of spore germination and fungal growth was recorded as a qualitative measurement at each observation time using a system of pluses and minuses: [-] meant no germination having occurred, [+] meant swollen spores with an extended germ tube, [++] meant the beginnings of mycelial growth with the overall appearance of a loose lattice, and [+++] meant a dense mycelial growth with the overall appearance of a thick opaque meshwork. The MCIC value for each AMPPP tested was then recorded, where the MCIC value is defined as the lowest peptide concentration at which no spore germination occurred (rating=[-]). […]

P3 Fusarium [3] = experiment: Effect of ECF or spent media on antifungal activity of AMPPPs; type: cell-based; conditions: ECF source Tobacco Leaf, 10% (v/v); comparison of MCIC with and without ECF
Text: It is critical to understand the effect of plant proteolytic enzymes on AMPPP activity because any AMPPP applied to crop plants will be in contact with plant tissues and any associated plant proteases. It is important to assess the bioactivity of an AMPPP which may be cleaved by one or more plant proteases as well as to recognize that such an event has occurred. An extract of extracellular fluid (ECF) as described in Example 14 is a useful reagent in determining such loss of antimicrobial activity of AMPPPs due to exposure to plant proteases in the extracellular compartment of plant tissues. Bioassay experiments were conducted with 300-1000 pregerminated P3 Fusarium spores essentially as described in Example 13 for various AMPPPs exposed to ECF from several crop species, or exposed to spent media collected as a supernatant from centrifuged three-day-old P3 Fusarium cultures grown in potato dextrose broth (PDB), corn stalk medium (CSM), or water as detailed below. The only major difference in the bioassay method used from that described in Example 13 was that the bioassay was conducted in a total culture volume of 10 microliters rather than 100 microliters. ECF was present in these bioassays at a final concentration of 10% (v/v) and was added concurrently with an AMPPP to the Fusarium spores at various AMPPP concentrations. […]

[4] = system: Erwinia carotovora carotovora strain SR319 (Ecc SR319); experiment: Antibacterial bioassay, minimum complete inhibitory concentration (MCIC); type: cell-based; conditions: for activity against Ecc SR319 (in words): even at concentrations higher than 150 micrograms AMPPP/mL; for MEAN MCIC VALUE: lowest peptide concentration with no bacterial growth, after 20 hours, Luria broth, 28° C., mean of at least three replicate experiments
Protocol: Erwinia carotovora carotovora strain SR319 (Ecc SR319) (a gift of Dr. C. H. Liao, USDA-ARS, Philadelphia, Pa.) was streaked on a plate of LB agar and grown overnight at 28° C. After 24 hours, a loopful of Ecc SR319 was picked from the agar plate and was added to 3 mL of Luria broth (10 g Bacto-tryptone, 5 g Bacto-yeast extract, and 10 g sodium chloride per liter of solution; autoclaved sterile) in a capped, sterile 10 mL test tube. This culture was grown overnight before its optical density at 630 nm was recorded using a Dynatech MR600 microplate reader (Dynatech Laboratories, Inc., Alexandria, Va.). A portion of the overnight culture was adjusted with Luria broth to obtain a culture with an optical density at 630 nm of 0.2. About 250 microliters of this culture was added to 2250 microliters of Luria broth in a capped, sterile 10 mL test tube before this diluted culture was grown for 3 hours at 28° C. in a shaking incubator. The optical density at 630 nm of the freshly grown culture was recorded and a portion of this mid-logarithmic growth phase culture was diluted 1000-fold with Luria broth to an approximate concentration of about 10^5 colony forming units per mL of culture. About 85 microliters of this diluted culture was added to 12 wells in a 96 well microtiter plate for each AMPPP to be tested, with 1-4 replicate sets of 12 wells prepared for each AMPPP within a single experiment. Stock solutions of each AMPPP were prepared at a concentration of 1 mg/mL and 0-15 microliters of each peptide stock solution were added to a single well in the microtiter plate followed by a sufficient volume of water to bring the total well volume to 100 microliters. Typical peptide volumes assayed were 0, 1, 2, 3, 4, 5, 6, 7, 8, 9, 10 and 15 microliters, which corresponds to a final peptide concentration in the range of 0-150 micrograms/mL. The microtiter plates were sealed with parafilm and incubated on a shaking platform at 28° C. for 44 hours. The optical density of each Ecc SR319 culture well was recorded at 20 hours and then at 44 hours. A minimum complete inhibitory concentration (MCIC) was then determined for each replicate set of varying peptide concentrations for each AMPPP whereby the MCIC is defined as the lowest peptide concentration at which no bacterial growth was observed. Table I lists mean MCIC values computed after 20 hours of treatment from at least three replicate experiments with each AMPPP. "Met(S)(O)" and "Met(R)(O)" refer to the diastereomeric forms of a methionine sulfoxide residue.
Although most of the AMPPP compounds listed in Table I were greater than 95% homogeneous following reverse phase HPLC purification, AMPPPs #24-26 and #28 were only 50-80% pure following partial purification and salt exchange by ion exchange chromatography.

Trichoderma reesei = experiment: Antifungal bioassay (spore germination MCIC); type: cell-based; conditions: lowest concentration with no spore germination, after 24 hours
Protocol: as §1

[5] = system: extracellular plant proteases; experiment: Resistance to proteolytic degradation by leaf extracellular fluid (ECF), HPLC; type: in vitro ADME, tobacco; conditions: 2.5% (v/v) ECF, 50 mM Tris pH 7.4, 37° C., one hour, relative to area of parent peak with no added ECF
Text: To determine the sensitivity of AMPPPs to extracellular proteases, and to determine the site of processing by these proteases, a system was designed to obtain extracellular fluid from leaves of maize, tobacco, and potato and to use these to test the stability of AMPPPs.
Extracellular fluid (ECF) was obtained in accordance with Z. Klement, "Method Of Obtaining Fluid From the Intercellular Space of Foliage and the Fluid's Merit As Substrate For Phytobacterial Pathogens," supra by cutting interveinal pieces from tobacco leaf after they were rinsed in deionized water. The segments were submerged in water in a vacuum desiccator and vacuum was applied for five to 10 minutes. The vacuum was released slowly, the leaves were blotted dry and four to five pieces were rolled and placed in a 50 mL disposable syringe barrel cut down so as to be able to fit in a swinging bucket centrifuge rotor. The syringe barrel was placed in a 50 mL screw cap conical centrifuge tube and centrifuged in a swinging bucket rotor at 500×g for 30 minutes. […]
Peptides were analyzed by reverse phase chromatography on a 4.6 mm×250 mm Vydac C-4 protein column (Nest Group, Southboro, Mass.) using a 0% to 60% acetonitrile gradient in 0.1% TFA in 30 minutes on a Hewlett-Packard HP1090 high pressure liquid chromatograph (Hewlett-Packard, Avondale, Pa.). […] These peptides were purified and analyzed by FAB-MS and amino acid analysis. […]

Substance: GIGKFLHTAKKFGKAFVGEIMNS-OH
- cleaved bond [1]: His7-Thr8

Substance: GIGKFLKSAKKFGKAFVGEIMNS-OH
- cleaved bond [1]: Lys7-Ser8

Substance: GIGKFLHSAKKFGKAFVGEIMNS-OH
- cleaved bond [1]: His7-Ser8; also recorded: Met21-Asn22

Substance: GIGKFLFSAKKFGKAFVGEIMNS-OH
- cleaved bond [1]: Phe7-Ser8

Substance: GIGKFLHSAGKFGKAFVGEIMKS-OH
- cleaved bond [1]: His7-Ser8

Substance: [Met^21 (S)(O)Mag 2-OH [AMPPP 6]
- Mean MCIC Values against: P3 Fusarium (10^7 spores) (P3 Fusarium [2]): 40 micrograms/mL
- Approximate % Reduction in Antifungal Activity by ECF (P3 Fusarium [3]): 50%
- activity against Ecc SR319 (in words) [4]: not active
- MEAN MCIC VALUE [4]: > 150 micrograms/mL
- Mean MCIC Values against: Trichoderma reesei (10^6 spores) (Trichoderma reesei): 75 micrograms/mL

Substance: GIGKFLHSAKKFGKAFVGEIMNS [AMPPP 1, Magainin 2-OH]
- Total Area Under Chromatogram Peaks: Fragment Gly^1 Xaa^7 [5]: 15.2%
- remaining at 1 h ([5]; cerebrospinal or other body fluid, read-out: Total Area Under Chromatogram Peaks: Parent AMPPP): 54.4%

Substance: GIGKFLHEAKKFGKAFVGEIMNS-OH
- cleaved bond [1]: His7-Glu8

Substance: [Met^21 (R)(O)]Mag 2-OH [AMPPP 7]
- Mean MCIC Values against: P3 Fusarium (10^7 spores) (P3 Fusarium [2]): 50 micrograms/mL
- activity against Ecc SR319 (in words) [4]: not active
- MEAN MCIC VALUE [4]: > 150 micrograms/mL
- Mean MCIC Values against: Trichoderma reesei (10^6 spores) (Trichoderma reesei): 75 micrograms/mL

Substance: GIGKFLHAAKKFGKAFVGEIMNS-OH
- cleaved bond [1]: His7-Ala8

Substance: GIGKFLRSAKKFGKAFVGEIMNS-OH
- cleaved bond [1]: Arg7-Ser8
